Data: ChEMBL document CHEMBL4359871, “Novel electrophilic amides amenable by the Ugi reaction perturb thioredoxin system via thioredoxin reductase 1 (TrxR1) inhibition: Identification of DVD-445 as a new lead compound for anticancer therapy” (Eur J Med Chem, 2019)
The source made the active and inactive calls. The rule behind the calls is not given here.

Experiments:
U-87 MG [1] = assay: Cytotoxicity against human U87 cells assessed as reduction in cell viability incubated for 72 hrs by MTT assay; format: functional, cell-based, U-87MG ATCC
SH-SY5Y [2] = assay: Cytotoxicity against human SH-SY5Y cells assessed as reduction in cell viability incubated for 72 hrs by MTT assay; format: functional, cell-based
HaCaT [3] = assay: Cytotoxicity against human HaCaT assessed as reduction in cell viability incubated for 72 hrs by MTT assay; format: cell-based
[4] = biological target: T1, Thioredoxin reductase 1, cytoplasmic (Homo sapiens, UniProt Q16881); assay: Inhibition of TrxR in human SH-SY5Y cells using DTNB as substrate preincubated for 15 mins followed by substrate addition and measured for 20 mins by Ellman's method; format: cell-based
T1 sequence (Q16881 whole entry): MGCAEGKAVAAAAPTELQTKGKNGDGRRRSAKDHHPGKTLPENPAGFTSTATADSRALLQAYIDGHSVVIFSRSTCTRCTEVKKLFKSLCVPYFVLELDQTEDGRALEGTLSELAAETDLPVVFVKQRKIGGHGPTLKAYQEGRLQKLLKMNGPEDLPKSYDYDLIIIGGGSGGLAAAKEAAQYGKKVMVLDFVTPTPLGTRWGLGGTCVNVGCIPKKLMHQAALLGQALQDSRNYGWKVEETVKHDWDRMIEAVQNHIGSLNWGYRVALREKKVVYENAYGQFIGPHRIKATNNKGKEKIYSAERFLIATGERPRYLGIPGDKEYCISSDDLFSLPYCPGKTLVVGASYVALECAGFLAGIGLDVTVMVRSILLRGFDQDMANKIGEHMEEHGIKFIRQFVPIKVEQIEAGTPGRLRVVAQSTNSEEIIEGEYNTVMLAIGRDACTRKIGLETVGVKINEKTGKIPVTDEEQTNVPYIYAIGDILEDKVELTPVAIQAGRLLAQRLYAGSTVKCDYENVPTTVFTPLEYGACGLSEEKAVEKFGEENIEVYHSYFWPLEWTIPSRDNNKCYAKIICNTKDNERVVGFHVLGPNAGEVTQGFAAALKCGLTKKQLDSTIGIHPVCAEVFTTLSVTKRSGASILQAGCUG

[5] = Induction of apoptosis in human HaCaT cells assessed as viable cells incubated for 48 hrs by annexin V FITC and propidium iodide staining based flow cytometry (reference value: 95.78 %); format: cell-based; conditions: read-out: Activity
HaCaT [6] = assay: Induction of ROS generation in human HaCaT cells incubated for 24 hrs by DHE staining based flow cytometry; format: cell-based
U-87 MG [7] = assay: Induction of RNS generation in human U87 cells incubated for 24 hrs by DHR staining based flow cytometry; format: functional, cell-based; conditions: U-87MG ATCC
[8] = biological target: T2, Thioredoxin reductase 1, cytoplasmic (Rattus norvegicus) (UniProt O89049); assay: […] inhibition of rat TrxR1 using DTNB as substrate preincubated for 15 mins in presence of NADPH followed by substrate addition and measured for 20 mins by Ellman's method
T2 sequence (whole entry): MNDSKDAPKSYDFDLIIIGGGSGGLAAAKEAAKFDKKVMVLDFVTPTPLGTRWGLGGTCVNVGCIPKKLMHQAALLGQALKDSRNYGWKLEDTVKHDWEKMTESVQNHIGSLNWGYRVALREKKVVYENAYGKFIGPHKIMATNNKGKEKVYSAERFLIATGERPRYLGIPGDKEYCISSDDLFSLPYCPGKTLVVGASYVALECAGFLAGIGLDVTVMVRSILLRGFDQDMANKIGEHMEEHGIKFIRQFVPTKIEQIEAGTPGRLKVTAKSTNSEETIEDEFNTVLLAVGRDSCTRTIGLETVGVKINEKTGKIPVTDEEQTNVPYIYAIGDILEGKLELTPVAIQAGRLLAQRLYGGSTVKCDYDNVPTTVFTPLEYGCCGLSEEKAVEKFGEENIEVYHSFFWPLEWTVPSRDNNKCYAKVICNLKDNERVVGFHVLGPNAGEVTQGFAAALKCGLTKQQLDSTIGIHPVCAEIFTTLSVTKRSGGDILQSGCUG

SH-SY5Y [9] = assay: Induction of apoptosis in human SH-SY5Y cells assessed as necrotic cells incubated for 48 hrs by annexin V FITC and propidium iodide staining based flow cytometry (reference value: 5.75 %); format: functional
SH-SY5Y [10] = assay: Induction of apoptosis in human SH-SY5Y cells assessed as early apoptotic cells incubated for 48 hrs by annexin V FITC and propidium iodide staining based flow cytometry (reference value: 0.44 %); format: functional
SH-SY5Y [11] = assay: Induction of apoptosis in human SH-SY5Y cells assessed as late apoptotic cells incubated for 48 hrs by annexin V FITC and propidium iodide staining based flow cytometry (reference value: 1.37 %); format: functional
SH-SY5Y [12] = assay: Induction of ROS generation in human SH-SY5Y cells incubated for 24 hrs by DHE staining based flow cytometry; format: functional, cell-based
HaCaT [13] = assay: Induction of apoptosis in human HaCaT cells assessed as necrotic cells incubated for 48 hrs by annexin V FITC and propidium iodide staining based flow cytometry (reference value: 2.74 %); format: cell-based
HaCaT [14] = assay: Induction of RNS generation in human HaCaT cells incubated for 24 hrs by DHR staining based flow cytometry; format: cell-based
U-87 MG [15] = assay: Induction of ROS generation in human U87 cells incubated for 24 hrs by DHE staining based flow cytometry; format: functional, cell-based; conditions: U-87MG ATCC
[16] = biological target: T1, Thioredoxin reductase 1, cytoplasmic; assay: Inhibition of TrxR1 (unknown origin) using DTNB as substrate preincubated for 30 mins in presence of insulin followed by substrate addition by colorimetry
HaCaT [17] = assay: Induction of apoptosis in human HaCaT cells assessed as early apoptotic cells incubated for 48 hrs by annexin V FITC and propidium iodide staining based flow cytometry (reference value: 0.02 %); format: cell-based
SH-SY5Y [18] = assay: Induction of RNS generation in human SH-SY5Y cells incubated for 24 hrs by DHR staining based flow cytometry; format: functional
SH-SY5Y [19] = assay: Induction of apoptosis in human SH-SY5Y cells assessed as viable cells incubated for 48 hrs by annexin V FITC and propidium iodide staining based flow cytometry (reference value: 92.44 %); format: functional
PBMC = assay: Cytotoxicity against human PBMC assessed as reduction in cell viability incubated for 72 hrs by MTT assay; format: cell-based
[20] = biological target: T3, Thioredoxin reductase 1, cytoplasmic (Rattus norvegicus, UniProt O89049); assay: Inhibition of rat TrxR1 using DTNB as substrate preincubated for 15 mins followed by substrate addition and measured for 20 mins by Ellman's method
T3 sequence (O89049 whole entry): T2 sequence (whole entry)

HaCaT [21] = assay: Induction of apoptosis in human HaCaT cells assessed as late apoptotic cells incubated for 48 hrs by annexin V FITC and propidium iodide staining based flow cytometry (reference value: 0.46 %); format: cell-based

IC50 [4] [µM] | inhibition [8] | IC50 [16] [µM] | Structure (SMILES) | IC50 (U-87 MG [1]) [µM] | IC50 (SH-SY5Y [2]) [µM] | IC50 (HaCaT [3]) [µM] | viability at 48 h [5] [%] | Activity (HaCaT [6]) | Activity (U-87 MG [7]) | Activity (SH-SY5Y [9]) [%] | Activity (SH-SY5Y [10]) [%] | Activity (SH-SY5Y [11]) [%] | Activity (SH-SY5Y [12]) | Activity (HaCaT [13]) [%] | Activity (HaCaT [14]) | Activity (U-87 MG [15]) | Activity (HaCaT [17]) [%] | Activity (SH-SY5Y [18]) | Activity (SH-SY5Y [19]) [%] | IC50 (PBMC) [µM] | other results
 |  |  | COc1cc(/C=C/C(=O)N2CCC=CC2=O)cc(OC)c1OC [PIPLARTINE] | 7.18 | 5.94 | 3.03 |  |  |  |  |  |  |  |  |  |  |  |  |  |  | 
30.5 |  |  | CCCCN(C(=O)/C=C/C(=O)c1ccc(F)cc1)C(C(=O)NCc1ccccc1)C(C)(C)C (configuration not stated) |  |  |  |  |  |  |  |  |  |  |  |  |  |  |  |  |  | 
31.8 | Active | 6.61 | Cc1ccc(C(=O)/C=C/C(=O)N(C2CC2)C(C(=O)NCc2ccccc2)c2ncc(C)cn2)cc1 (configuration not stated) | 15.2 | 4.94 | 5.45 | 91.7 | Non-Toxic | inactive | 14.54 | 1.1 | 2.91 | inactive | 7.18 | Non-Toxic | inactive | 0.07 | inactive | 81.45 | 15.3 | IC50 [20]: 4.2 µM; Activity (HaCaT [21]): 1.06%
8.58 | Active | 2.51 | COc1cc(C(C(=O)NC(C)(C)C)N(CCC(C)C)C(=O)/C=C/C(=O)c2ccc(F)cc2)cc(OC)c1OC (configuration not stated) | 2.92 | 2.96 | 1.05 | 65.3 | Non-Toxic | inactive | 61.97 | 0.07 | 0.39 | inactive | 29.45 | Non-Toxic | inactive | 0.14 | >=30% | 37.57 | 7.29 | IC50 [20]: 1.25 µM; Activity (HaCaT [21]): 5.06%
17.4 | Active | 0.82 | CC(C)(C)NC(=O)C(c1ccc(F)cc1)N(C(=O)/C=C/C(=O)c1ccc(F)cc1)C1CC1 (configuration not stated) | 0.8 | 0.56 | 1.06 | 94 | Non-Toxic | inactive | 11.11 | 0.6 | 1.54 | inactive | 5.21 | Non-Toxic | inactive | 0.07 | inactive | 86.76 | 5.6 | IC50 [20]: 0.93 µM; Activity (HaCaT [21]): 0.77%
76.6 |  |  | COc1ccc(C(C(=O)NC(C)(C)C)N(C(=O)/C=C/C(=O)c2ccc(C)cc2)C2CC2)cc1OC (configuration not stated) |  |  |  |  |  |  |  |  |  |  |  |  |  |  |  |  |  | 
> 200 |  |  | COc1ccc(C(C(=O)NC2CCCCC2)N(CC(C)C)C(=O)/C=C/C(=O)c2ccc(C)cc2)cc1 (configuration not stated) |  |  |  |  |  |  |  |  |  |  |  |  |  |  |  |  |  | 
29.3 |  |  | Cc1ccc(C(=O)/C=C/C(=O)N(C2CC2)C(C(=O)NC2CCCCC2)c2ccc(F)cc2)cc1 (configuration not stated) |  |  |  |  |  |  |  |  |  |  |  |  |  |  |  |  |  | 
> 200 |  |  | Cc1ccc(C(=O)/C=C/C(=O)N(CC(C)C)C(C(=O)NC(C)(C)C)C(C)(C)C)cc1 (configuration not stated) |  |  |  |  |  |  |  |  |  |  |  |  |  |  |  |  |  | 
> 200 |  |  | Cc1ccc(C(=O)C[C@H]2C(=O)N(C3CCCCC3)[C@H](c3cccnc3)C(=O)N2Cc2ccccc2)cc1 (racemic) |  |  |  |  |  |  |  |  |  |  |  |  |  |  |  |  |  | 
7.26 | Active | 0.96 | CN(CCOC(=O)/C=C/C(=O)c1ccc(F)cc1)C(C(=O)NC(C)(C)C)c1ccc(F)cc1 (configuration not stated) | 9.7 | 11 | 8.3 | 93.9 | Non-Toxic | inactive | 14.96 | 2.57 | 6.73 | inactive | 5.21 | Non-Toxic | inactive | 0.03 | inactive | 75.74 | 55.7 | IC50 [20]: 0.6 µM; Activity (HaCaT [21]): 0.83%
16 | Active | 0.76 | COc1ccc(C(C(=O)NC(C)(C)C)N(C(=O)/C=C/C(=O)c2ccc(C)cc2)C(C)C)cc1 (configuration not stated) | 0.46 | 0.9 | 0.83 | 78.8 | Non-Toxic | inactive | 25.8 | 0.71 | 2.14 | inactive | 18.16 | Non-Toxic | inactive | 0.22 | >=30% | 71.35 | 2.1 | IC50 [20]: 1.74 µM; Activity (HaCaT [21]): 2.92%
51.2 | Active | 5.28 | COc1ccccc1C(C(=O)NC1CCCCC1)N(C(=O)/C=C/C(=O)c1ccc(C)cc1)C1CCCCC1 (configuration not stated) | 1.41 | 1.77 | 1.56 | 89.1 | Non-Toxic | inactive | 41.62 | 0.25 | 0.92 | inactive | 9.65 | Non-Toxic | inactive | 0.07 | >=30% | 57.22 | 1.62 | IC50 [20]: 3.12 µM; Activity (HaCaT [21]): 1.15%
81.6 |  |  | CCCN(C(=O)/C=C/C(=O)c1ccc(C)cc1)C(C(=O)NC1CCCCC1)c1ccc(C)cc1 (configuration not stated) |  |  |  |  |  |  |  |  |  |  |  |  |  |  |  |  |  | 
